Source: patent US20070197590A1, “SUBSTITUTED DIPIPERIDINE CCR2 ANTAGONISTS” (priority 2006, published 2007)
pIC50: −log10 of the molar value.

Assays:
[1] = target: T1, CCR2 (Homo sapiens, UniProt P41597); experiment: MCP-1 Receptor Binding Assay in THP-1 Cells; details: for pIC50: THP-1 cells, 0.5 nM 125I labeled MCP-1, 2 hours at 30° C., read-out: Inhibition of MCP-1 Binding IC50; for inhibition at 25 µM: test concentration of 25 μM, given where an IC50 value was not obtained, read-out: Inhibition of MCP-1 Binding, percent inhibition
T1 construct: host or cells: THP-1 cells
T1 sequence (P41597 1-360 isoform P41597-2): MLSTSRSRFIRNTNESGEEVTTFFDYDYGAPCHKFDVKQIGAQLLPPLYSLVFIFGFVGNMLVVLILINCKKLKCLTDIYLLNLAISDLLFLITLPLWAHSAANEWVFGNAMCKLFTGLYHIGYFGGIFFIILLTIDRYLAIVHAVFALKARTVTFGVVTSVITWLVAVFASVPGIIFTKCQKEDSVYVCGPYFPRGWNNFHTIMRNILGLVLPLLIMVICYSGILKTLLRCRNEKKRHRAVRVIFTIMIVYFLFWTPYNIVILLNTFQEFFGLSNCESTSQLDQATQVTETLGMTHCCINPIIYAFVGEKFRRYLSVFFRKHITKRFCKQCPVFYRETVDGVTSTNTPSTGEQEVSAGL
Summary of the method: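 Whole THP-1 cells incubated 2 h at 30° C with 0.5 nM 125I-MCP-1 and varying compound concentrations; bound radioactivity harvested on filters and counted by scintillation. Nonspecific binding with 1 μM cold MCP-1; IC50 for inhibition of binding versus vehicle.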

[2] = tested on: MCP-1 induced calcium ion influx in THP-1 cells; experiment: MCP-1 Induced Calcium Mobilization in THP-1 Cells; type: cell-based; details: Homo sapiens; for inhibition at 25 µM: THP-1, test concentration of 25 μM, given where an IC50 value was not obtained, read-out: Inhibition of MCP-1 Induced Calcium Ion Influx, percent inhibition; for pIC50: THP-1, THP-1 cells, 0.2 μM MCP-1, FLIPR, read-out: Inhibition of MCP-1 Induced Calcium Ion Influx IC50
Protocol: THP-1 cells were plated at a density of 8×10^5 cells/mL (100 μL/well) into poly-D lysine coated clear bottom, black 96 well plates. The cells were loaded with 5 μM fluo-3 for 45 minutes. The fluo-3 washed off and cells were incubated with varying concentrations of test compound for 15 minutes. The change in calcium ion concentration upon addition of 0.2 μM MCP-1 was determined using FLIPR and compared to vehicle.
Table 2 lists IC50 values for inhibition of MCP-1 induced influx of calcium ions.

COc1ccc(C2CCN(CC(O)C3(O)CCN(C(=O)Nc4ccc(F)c(F)c4)CC3)CC2)cc1 (centres unmarked) [Compound 114, 4-hydroxy-4-{1-hydroxy-2-[4-(4-methoxy-phenyl)-piperidin-1-yl]-ethyl}-piperidine-1-carboxylic acid (3,4-difluoro-phenyl)-amide]
pIC50 [1]: 5.96
inhibition at 25 µM [2]: 55%

COc1ccc(C2CCN(CC(O)C3(O)CCN(C(=O)Nc4cc(F)cc(F)c4)CC3)CC2)cc1 (centres unmarked) [Compound 115, 4-hydroxy-4-{1-hydroxy-2-[4-(4-methoxy-phenyl)-piperidin-1-yl]-ethyl}-piperidine-1-carboxylic acid (3,5-difluoro-phenyl)-amide]
pIC50 [1]: 6.04
inhibition at 25 µM [2]: 57%

COc1ccc(C2CCN(CC(O)C3(O)CCN(C(=O)Nc4ccc(Cl)c(Cl)c4)CC3)CC2)cc1 (centres unmarked) [Compound 116, 4-hydroxy-4-{1-hydroxy-2-[4-(4-methoxy-phenyl)-piperidin-1-yl]-ethyl}-piperidine-1-carboxylic acid (3,4-dichloro-phenyl)-amide]
pIC50 [1]: 6.28
pIC50 [2]: 6.08

COc1ccc(C2CCN(CC(O)C3(O)CCN(C(=S)Nc4ccc(Cl)c(Cl)c4)CC3)CC2)cc1 (centres unmarked) [Compound 117, 4-hydroxy-4-{1-hydroxy-2-[4-(4-methoxy-phenyl)-piperidin-1-yl]-ethyl}-piperidine-1-carbothioic acid (3,4-dichloro-phenyl)-amide]
pIC50 [1]: 5.89
pIC50 [2]: 5.92

COc1ccc(C2CCN(CC(O)C3(O)CCN(C(=S)Nc4cc(Cl)cc(Cl)c4)CC3)CC2)cc1 (centres unmarked) [Compound 118, 4-hydroxy-4-{1-hydroxy-2-[4-(4-methoxy-phenyl)-piperidin-1-yl]-ethyl}-piperidine-1-carbothioic acid (3,5-dichloro-phenyl)-amide]
pIC50 [1]: 5.89
pIC50 [2]: 5.51

OC(CN1CCC(c2c[nH]c3ccccc23)CC1)C1(O)CCN(c2nccc(C(F)(F)F)n2)CC1 (centres unmarked) [Compound 120, 4-{1-hydroxy-2-[4-(1H-indol-3-yl)-piperidin-1-yl]-ethyl}-1-(4-trifluoromethyl-pyrimidin-2-yl)-piperidin-4-ol]
pIC50 [1]: 5.72
inhibition at 25 µM [2]: 13%

OC(CN1CCC(c2nc3ccccc3[nH]2)CC1)C1(O)CCN(c2nccc(C(F)(F)F)n2)CC1 (centres unmarked) [Compound 121, 4-{2-[4-(1H-benzoimidazol-2-yl)-piperidin-1-yl]-1-hydroxy-ethyl}-1-(4-trifluoromethyl-pyrimidin-2-yl)-piperidin-4-ol]
inhibition at 25 µM [1]: 50%
inhibition at 25 µM [2]: 65%

Cc1ccc2[nH]cc(C3CCN(CC(O)C4(O)CCN(c5nccc(C(F)(F)F)n5)CC4)CC3)c2c1 (centres unmarked) [Compound 123, 4-{1-hydroxy-2-[4-(5-methyl-1H-indol-3-yl)-piperidin-1-yl]-ethyl}-1-(4-trifluoromethyl-pyrimidin-2-yl)-piperidin-4-ol]
pIC50 [1]: 5.03
inhibition at 25 µM [2]: 68%

N#Cc1ccc2[nH]cc(C3CCN(CC(O)C4(O)CCN(c5nccc(C(F)(F)F)n5)CC4)CC3)c2c1 (centres unmarked) [Compound 124, 3-(1-{2-hydroxy-2-[4-hydroxy-1-(4-trifluoromethyl-pyrimidin-2-yl)-piperidin-4-yl]-ethyl}-piperidin-4-yl)-1H-indole-5-carbonitrile]
pIC50 [1]: 5.08
inhibition at 25 µM [2]: 43%

O=C(/C=C/c1ccc(F)c(F)c1)N1CCC(O)(C(O)CN2CCC(c3ccc(F)cc3)CC2)CC1 (centres unmarked) [Compound 129]
pIC50 [1]: 6.30
pIC50 [2]: 5.10

O=C(/C=C/c1ccc(Cl)c(Cl)c1)N1CCC(O)(C(O)CN2CCC(c3ccc(F)cc3)CC2)CC1 (centres unmarked) [Compound 131]
pIC50 [1]: 6.74
pIC50 [2]: 6.42

O=C(Nc1ccc(F)c(F)c1)N1CCC(O)(C(O)CN2CCC(c3ccc(F)cc3)CC2)CC1 (centres unmarked) [Compound 132, 4-{2-[4-(4-fluoro-phenyl)-piperidin-1-yl]-1-hydroxy-ethyl}-4-hydroxy-piperidine-1-carboxylic acid (3,4-difluoro-phenyl)-amide]
pIC50 [1]: 5.62
inhibition at 25 µM [2]: 26%

O=C(Nc1ccc(Cl)c(Cl)c1)N1CCC(O)(C(O)CN2CCC(c3ccc(F)cc3)CC2)CC1 (centres unmarked) [Compound 134, 4-{2-[4-(4-fluoro-phenyl)-piperidin-1-yl]-1-hydroxy-ethyl}-4-hydroxy-piperidine-1-carboxylic acid (3,4-dichloro-phenyl)-amide]
pIC50 [1]: 5.72
inhibition at 25 µM [2]: 52%

OC(CN1CCC(c2ccc(F)cc2)CC1)C1(O)CCN(C(=S)Nc2ccc(Cl)c(Cl)c2)CC1 (centres unmarked) [Compound 135, 4-{2-[4-(4-fluoro-phenyl)-piperidin-1-yl]-1-hydroxy-ethyl}-4-hydroxy-piperidine-1-carbothioic acid (3,4-dichloro-phenyl)-amide]
pIC50 [1]: 6.14
pIC50 [2]: 5.04

O=C(/C=C/c1ccc(Cl)c(Cl)c1)N1CCC(O)(C(O)CN2CCC(c3ccc(C(F)(F)F)cc3)CC2)CC1 (centres unmarked) [Compound 139]
pIC50 [1]: 6.04
pIC50 [2]: 6.51

O=C(/C=C/c1cc(F)c(F)c(F)c1)N1CCC(O)(C(O)CN2CCC(O)(c3ccc(F)cc3)CC2)CC1 (centres unmarked) [Compound 152]
pIC50 [1]: 5.51
inhibition at 25 µM [2]: 43%

O=C(/C=C/c1ccc(F)c(F)c1)N1CCC(O)(C(O)CN2CCC(O)(c3ccc(F)cc3)CC2)CC1 (centres unmarked) [Compound 153]
pIC50 [1]: 6.14
inhibition at 25 µM [2]: 12%

O=C(/C=C/c1ccc(Cl)c(Cl)c1)N1CCC(O)(C(O)CN2CCC(c3c[nH]c4ccc(F)cc34)CC2)CC1 (centres unmarked) [Compound 158]
pIC50 [1]: 6.46
pIC50 [2]: 5.68

O=C(/C=C/c1ccc(F)c(Br)c1)N1CCC(O)(C(O)CN2CCC(c3c[nH]c4ccc(F)cc34)CC2)CC1 (centres unmarked) [Compound 159]
pIC50 [1]: 6.14
pIC50 [2]: 5.82

O=C(CCc1ccc(Cl)cc1)N1CCC(O)(C(O)CN2CCC(c3c[nH]c4ccc(F)cc34)CC2)CC1 (centres unmarked) [Compound 160, 3-(4-chloro-phenyl)-1-(4-{2-[4-(5-fluoro-1H-indol-3-yl)-piperidin-1-yl]-1-hydroxy-ethyl}-4-hydroxy-piperidine-1-yl)-propan-1-one]
pIC50 [1]: 6.08
pIC50 [2]: 5.44

O=C(/C=C/c1ccc(Cl)c(Cl)c1)N1CCC(O)(C(O)CN2CCC(c3c[nH]c4ccc(N5CCOCC5)cc34)CC2)CC1 (centres unmarked) [Compound 169]
pIC50 [1]: 6.10
pIC50 [2]: 5.27

O=C(/C=C/c1ccc(Cl)cc1)N1CCC(O)(C(O)CN2CCC(c3c[nH]c4ccc(N5CCOCC5)cc34)CC2)CC1 (centres unmarked) [Compound 170]
pIC50 [1]: 5.36
pIC50 [2]: 4.76

O=C(/C=C/c1ccc(F)cc1)N1CCC(O)(C(O)CN2CCC(c3c[nH]c4ccc(N5CCOCC5)cc34)CC2)CC1 (centres unmarked) [Compound 171]
pIC50 [1]: 4.89
inhibition at 25 µM [2]: 22%

O=C(/C=C/c1ccc(F)c(F)c1)N1CCC(O)(C(O)CN2CCC(c3c[nH]c4ccc(N5CCOCC5)cc34)CC2)CC1 (centres unmarked) [Compound 172]
pIC50 [1]: 5.43
inhibition at 25 µM [2]: 46%

O=C(/C=C/c1ccc(F)c(Br)c1)N1CCC(O)(C(O)CN2CCC(c3c[nH]c4ccc(N5CCOCC5)cc34)CC2)CC1 (centres unmarked) [Compound 173]
pIC50 [1]: 6.04
pIC50 [2]: 5.92

Cc1cccc(/C=C/C(=O)N2CCC(O)(C(O)CN3CCC(c4c[nH]c5ccc(N6CCOCC6)cc45)CC3)CC2)c1 (centres unmarked) [Compound 174]
pIC50 [1]: 5.49
inhibition at 25 µM [2]: 44%

O=C(/C=C/c1cc(F)c(F)cc1F)N1CCC(O)(C(O)CN2CCC(c3c[nH]c4ccc(N5CCOCC5)cc34)CC2)CC1 (centres unmarked) [Compound 175]
inhibition at 25 µM [1]: 70%
inhibition at 25 µM [2]: 24%

COc1cccc(/C=C/C(=O)N2CCC(O)(C(O)CN3CCC(c4c[nH]c5ccc(N6CCOCC6)cc45)CC3)CC2)c1 (centres unmarked) [Compound 177]
inhibition at 25 µM [1]: 53%
inhibition at 25 µM [2]: 27%

O=C(/C=C/c1ccsc1)N1CCC(O)(C(O)CN2CCC(c3c[nH]c4ccc(N5CCOCC5)cc34)CC2)CC1 (centres unmarked) [Compound 178]
inhibition at 25 µM [1]: 59%
inhibition at 25 µM [2]: 2%

OC(CN1CCC(c2c[nH]c3ccc(N4CCOCC4)cc23)CC1)C1(O)CCN(C(=S)Nc2cc(Cl)cc(Cl)c2)CC1 (centres unmarked) [Compound 182, 4-hydroxy-4-{1-hydroxy-2-[4-(5-morpholin-4-yl-1H-indol-3-yl)-piperidin-1-yl]-ethyl}-piperidine-1-carbothioic acid (3,5-dichloro-phenyl)-amide]
pIC50 [1]: 5.31
pIC50 [2]: 5.27

CC(=O)Nc1ccc2[nH]cc(C3CCN(CC(O)C4CCN(C(=O)OCc5ccccc5)CC4)CC3)c2c1 (centres unmarked) [Compound 184, 4-{2-[4-(5-acetylamino-1H-indol-3-yl)-piperidin-1-yl]-1-hydroxy-ethyl}-piperidine-1-carboxylic acid benzyl ester]
inhibition at 25 µM [1]: 61%
inhibition at 25 µM [2]: 13%
